Reference: PubChem BioAssay AID602185 (Broad Institute, 2012)
Activity calls are given as the source filed them.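 How the source made its calls: active means compounds curbing yeast growth with fitted half-effect dose at most twice their top tested dose; inconclusive means flat fit at 30 to 70% inhibition, or poor fit; inactive means the rest.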

Columns and labels:
[1] = C. glabrata growth inhibition on glucose, dose response, glucose medium, OD600, dry powder (AID 602185); details: Candida glabrata growth in glucose, OD600, 48 h, stronger effect = lower value
[2] = system: Candida glabrata growth in glucose, OD600, 48 h; assay: as above

Which max activity, negative = growth inhibition ([1]; at 0.16 µM) does the source give for `O=C(Nc1nnc(-c2ccc3c(c2)CCCC3)o1)c1ccc(Cl)cc1Cl` here?
Its max activity, negative = growth inhibition is 21% (inactive).

For `O=C(Oc1c(Cl)cc(Cl)c2cccnc12)c1ccco1`, which AC50 [2] is on record?
The AC50 was 1.14 µM.

Which AC50 [2] does the source give for `O=C(Nc1nc(-c2ccccn2)cs1)c1ccc(Br)s1` here?
The AC50 was 8.64 µM.

For `Cc1cc(C)n(-c2nc3ccccc3c(=O)n2OCC#N)n1`, which max activity, negative = growth inhibition ([1]; at 19.5 µM) is on record?
Its max activity, negative = growth inhibition is -17.9% (inactive).

For `O=C(Nc1nc(-c2ccccc2)cs1)c1ccc(Br)s1`, which max activity, negative = growth inhibition ([1]; at 0.3 µM) is on record?
The max activity, negative = growth inhibition was 11.1% (inactive).

For `CCOC(=O)N1C(=O)C2(CCCCC2)N(c2ccc(C)cc2)C1=S`, which max activity, negative = growth inhibition ([1]; at 0.08 µM) is on record?
The max activity, negative = growth inhibition was 13.5% (inactive).

Which max activity, negative = growth inhibition ([1]; at 2.6 µM) does the source give for `O=C(Nc1nnc(-c2ccc3c(c2)CCCC3)o1)c1ccccc1` here?
Its max activity, negative = growth inhibition is -10.5% (inactive).

With `C=CCNC(=S)N/N=C(\C)c1ccccn1` as the molecule, how does the AC50 [2] read?
The AC50 was 6.14 µM.

Which max activity, negative = growth inhibition ([1]; at 19.5 µM) does the source give for `Oc1c(C(c2ccccc2Cl)N2CCCCC2)ccc2cccnc12` (centres undefined) here?
Its max activity, negative = growth inhibition is -24.3% (inactive).

With `CCCC(=O)NC(c1cccs1)c1cc(Cl)c2cccnc2c1O` (centres undefined) as the molecule, how does the AC50 [2] read?
The AC50 was 3.27 µM.

With `Cc1ccc(C(=O)Nc2nnc(-c3ccccc3)o2)cc1C` as the molecule, how does the max activity, negative = growth inhibition ([1]; at 0.16 µM) read?
The max activity, negative = growth inhibition was 18.7% (inactive).

With `O=C(NNC(=S)Nc1ccc(Cl)c(Cl)c1)c1ccccn1` as the molecule, how does the AC50 [2] read?
The AC50 was 10.1 µM.

With `O=C(Nc1nc(-c2ccccn2)cs1)c1ccc(Cl)s1` as the molecule, how does the AC50 [2] read?
Its AC50 is 9.57 µM.

Which max activity, negative = growth inhibition ([1]; at 10 µM) does the source give for `Oc1c(CN2CCc3ccccc3C2)cc(Cl)c2cccnc12` here?
The max activity, negative = growth inhibition was 15.2% (inactive).

For `O=C(Nc1nc(-c2ccc3c(c2)CCCC3)cs1)c1ccccc1`, which max activity, negative = growth inhibition ([1]; at 0.3 µM) is on record?
The max activity, negative = growth inhibition was 19.6% (inactive).

For `Oc1c(CN2CCN(c3ccccc3)CC2)cc(Cl)c2cccnc12`, which max activity, negative = growth inhibition ([1]; at 0.35 µM) is on record?
The max activity, negative = growth inhibition was 12.9% (inactive).

With `NC(=O)c1cccc(C(=O)Nc2nc(-c3ccc4c(c3)CCCC4)cs2)c1` as the molecule, how does the max activity, negative = growth inhibition ([1]; at 2.6 µM) read?
Its max activity, negative = growth inhibition is 14.1% (inactive).

Which max activity, negative = growth inhibition ([1]; at 1.2 µM) does the source give for `Oc1c(C(c2ccc(Cl)cc2)N2CCCC2)ccc2cccnc12` (centres undefined) here?
The max activity, negative = growth inhibition was 12% (inactive).

With `COc1ccc(-c2nnc(NC(=O)c3ccc(S(=O)(=O)N4CCCc5ccccc54)cc3)o2)cc1` as the molecule, how does the max activity, negative = growth inhibition ([1]; at 0.3 µM) read?
Its max activity, negative = growth inhibition is 12.6% (inactive).

Which max activity, negative = growth inhibition ([1]; at 19.5 µM) does the source give for `Cc1ccc(C(=O)Nc2nc(-c3ccccn3)cs2)cc1` here?
The max activity, negative = growth inhibition was -34.8% (inactive).

Which AC50 [2] does the source give for `Cc1ccc(-c2nc3c(Cl)cc(Cl)cc3c(=O)n2O)cc1` here?
The AC50 was 1.75 µM.

With `CN1CCN(C(c2ccc(C(F)(F)F)cc2)c2ccc3cccnc3c2O)CC1` (centres undefined) as the molecule, how does the AC50 [2] read?
Its AC50 is 2.18 µM.

For `O=C(Nc1nc(-c2ccccn2)cs1)c1ccccc1`, which max activity, negative = growth inhibition ([1]; at 19.5 µM) is on record?
Its max activity, negative = growth inhibition is -14.7% (inactive).

With `C/C(=N\NC(=O)c1cc2ccccc2cc1O)c1ccccn1` as the molecule, how does the max activity, negative = growth inhibition ([1]; at 5 µM) read?
The max activity, negative = growth inhibition was 18.8% (inactive).
